# Positions of bridges follow the written chain, without caps; N, C: chain ends. Non-standard residues stand in square brackets, D forms with d. Residues, ends and D or L forms follow the SMILES beside them. No end group written: not given here. Cy5.5 = near-infrared dye, attached as Cy5.5-NHS ester; βAla = NCCC(=O)O
# How the values were obtained:
# [1] = Peptide stability in human serum; assay type: in vitro ADME; details: 37° C.
# Experimental: For the serum stability experiments, human serum or liver homogenate (250 μL) were added to DMEM medium (650 μL) in a 1.5 mL Eppendorf tube to mimic a biological system. The temperature was equilibrated at 37±1° C. for 30 minutes before adding 100 μL of the peptide stock solution (1 mM solution in 10% DMSO in sterile water). An aliquot of reaction solution (100 μL) was removed from the sample at different time points 0, 3, 5, 10, 20, and 30 minutes added to pure methanol (300 μL) for precipitation of the serum proteins present in the human serum proteins by centrifugation (10,000 rpm, 5 minutes). The clear supernatant was analyzed by reversed phase HPLC, and the appropriate fractions were collected for identification using MALDI-TOF. Proteolysis kinetics of the peptides was analyzed by following the decrease in the concentration of the intact peptide as a function of time. The t1/2 half-lives of peptides were calculated.
# [2] = In vivo and ex vivo NIRF brain imaging after ip injection, wild-type mice; details: for ability to penetrate the blood brain barrier: single ip administration, wild-type mice, NIR fluorescence
# Experimental: For in vivo imaging experiments, 6-12 month-old TgCRND8, age-matched wild-type littermate, and heterozygous CTR knockdown mice (50% CTR expression level compared to wild type control mice and presumably with 50% AMY receptor expression level) were used (n=5 in each group). The animals were anesthetized with ketamine ip injection. The fur was shaved from the head and dorsal side of the body to avoid laser scattering caused by hair. […] Wild type mice injected with 200 μl saline were used as a background.
# Images were acquired with a Kodak IS2000MM Image station (GE Healthcare Systems/ART Inc.), excitation filter 625/20 band pass, emission filter 700 W band pass, light source was 150 W quartz halogen lamp set to 100 (max). Images were captured with a CCD camera set to F stop=0, FOV=150, FP=0. Exposure time was 2 min per image for NIRF image and 1 s for visible image. To evaluate for fluorescence concentration, the region of interest was drawn around the brain region and analyzed using the Kodak ID 3.6 software and the mean fluorescence intensity was recorded.
# [3] = In vivo pharmacokinetics and bio-distribution of cAC253
# Experimental: There were 3 mice in each dose group. After 2 hours the mice were sacrificed to collect their brains which were imaged in a Kodak imager. […] The heart, liver, lung, spleen, intestine, stomach, kidney and brain were excised after perfusion with PBS, and kept in dry ice before Kodak imaging. Fluorescence was quantified, and analyzed as previously.
# [4] = after ip injection, 2 h, brain homogenate fluorescence vs standard
# [5] = Lipophilicity, shake flask 1-octanol/water partition; assay type: physicochemical
# Experimental: Peptides hydrophobicity was determined using the shake flask method and 1-octanol/water partition coefficient (log Po/w) was determined. […] Peptide concentration (area) in both phases (1-octanol and water) were analyzed by RP-HPLC. The final log Po/w value was calculated by dividing the concentration (C) of the peptide in the two phases as presented by the area under the peak (partition coefficients=C1-octanol/Cwater).
# [6] = In vivo competition with unlabeled cAC253, ex vivo brain fluorescence; design: species or system mouse; details: 40 μg Cy5.5 cAC253 + 5-fold excess (200 μg) unlabeled cAC253 ip, 2 hr
# Experimental: Additionally, a competition in vivo experiment was also carried out. […] Brains were then extracted and scanned ex-vivo for fluorescence concentration. For ex vivo histological study, brains were excised and embedded in OCT, then sliced into 20-μm slices, co-stained with DAPI in mounting medium.
# AMY1 = target: T1, AMY1 (Homo sapiens, UniProt O60894+P30988); experiment: Peptide array-cell binding assay, AMY1 transfected cells; details: membrane screening AMY1-3 subtypes
# T1 construct: expressed in transfected cells
# T1 sequence (P30988 25-474): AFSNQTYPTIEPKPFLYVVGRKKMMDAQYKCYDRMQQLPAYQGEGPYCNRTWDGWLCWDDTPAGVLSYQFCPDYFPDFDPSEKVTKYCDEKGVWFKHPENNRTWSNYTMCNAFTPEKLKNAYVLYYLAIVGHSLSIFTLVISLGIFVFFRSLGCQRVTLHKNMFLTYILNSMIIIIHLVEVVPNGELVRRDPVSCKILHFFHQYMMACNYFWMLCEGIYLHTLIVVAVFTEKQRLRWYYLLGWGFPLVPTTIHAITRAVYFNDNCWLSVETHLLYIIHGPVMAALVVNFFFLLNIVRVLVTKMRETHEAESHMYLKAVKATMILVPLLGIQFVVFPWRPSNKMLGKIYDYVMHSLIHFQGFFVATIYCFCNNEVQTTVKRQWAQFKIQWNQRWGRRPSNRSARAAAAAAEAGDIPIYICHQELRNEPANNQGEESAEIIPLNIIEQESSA
# T1 sequence (O60894 27-148 partner): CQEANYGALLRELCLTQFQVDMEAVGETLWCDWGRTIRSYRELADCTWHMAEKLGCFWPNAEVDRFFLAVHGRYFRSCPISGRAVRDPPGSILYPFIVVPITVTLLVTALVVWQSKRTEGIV
compound,measurement,setting,value
CC(C)C[C@@H]1NC(=O)[C@H](N)CSSC[C@H](C(N)=O)NC(=O)[C@H](Cc2ccc(O)cc2)NC(=O)[C@H]([C@@H](C)O)NC(=O)[C@H](CC(N)=O)NC(=O)[C@H](CO)NC(=O)CNC(=O)[C@H]([C@@H](C)O)NC(=O)[C@H](CC(N)=O)NC(=O)[C@H]([C@@H](C)O)NC(=O)[C@H](CCCNC(=N)N)NC(=O)[C@@H]2CCCN2C(=O)[C@H](Cc2ccc(O)cc2)NC(=O)[C@H]([C@@H](C)O)NC(=O)[C@H](CCC(N)=O)NC(=O)[C@H](CC(C)C)NC(=O)[C@H](CCCNC(=N)N)NC(=O)[C@H](Cc2c[nH]cn2)NC(=O)[C@H](CC(C)C)NC(=O)[C@H](CCC(=O)O)NC(=O)[C@H](CCC(N)=O)NC(=O)[C@H](CO)NC(=O)[C@H](CC(C)C)NC(=O)[C@H](CCCNC(=N)N)NC(=O)CNC1=O [cAC253] (H-[dC]LGRLSQELHRLQTYPRTNTGSNTY[dC]-NH2; disulfide 1-26; N-terminus assumed),stability in human serum relative to AC253,[1],seven-fold increase
same,stability in human serum relative to AC253,[1]; listed as Cyclic-AC253,7 times
same,half-life,"[1]; human, serum, RP-HPLC of intact peptide",7 h
same,ex-vivo brain fluorescence signal relative to saline injection,"[2]; 2 h post ip injection, 0.1 mmol in 200 μl saline",2.8 fold
same,further increase of brain fluorescence level at 6 h,"[2]; 6 h post-ip injection, 0.01 mmol",20%
same,ability to penetrate the blood brain barrier,[2],penetrate the blood brain barrier
same,bio-distribution in organs,[3]; 2 h after injecting 20 mg/kg,"mainly observed in the eliminating organs such as kidneys, liver and in the injection sites (intestine)"
same,brain concentration,[4],10 to 100 nM
same,logP,"[5]; 1-octanol/water shake flask, read-out: log P",-1.05
same,Partition coefficient,"[5]; Table 2, 1-octanol/PBS shake flask",1.22
same,reduction of brain fluorescence signal by excess unlabeled cAC253,[6],75%
"C[N+]1=C(C=CC=CC=C2N(CCCCCC(=O)ON3C(=O)CCC3=O)c3ccc4ccccc4c3C2(C)C)C(C)(C)c2c1ccc1ccccc21.[Cl-] [Cy5 dye, Cyanine5.5 NHS ester dye, reference compound]",ability to penetrate the blood brain barrier,[2],could not on its own cross the BBB
RLQTYPRTNTGS (RLQTYPRTNTGS-NH2) [R10],binding to AMY1 cells on peptide array (fluorescence),AMY1,AMY1 specific peptide
"Cy5-cAC253: cAC253 with extra β-alanine spacer, N-terminally labeled with near-infrared dye Cy5.5-NHS ester ({Cy5.5-βAla}-[dC]LGRLSQELHRLQTYPRTNTGSNTY[dC]-NH2; disulfide 1-26)",half-life of brain fluorescence signal,"[3]; mouse, in vivo, ip, 20 mg/kg",16 h
"CC[C@H](C)[C@H](NC(=O)[C@H](C)NC(=O)[C@@H](N)Cc1c[nH]cn1)C(=O)N[C@@H](Cc1ccc(O)cc1)C(=O)N1CCC[C@H]1C(=O)N[C@@H](CCCNC(=N)N)C(=O)N[C@@H](Cc1c[nH]cn1)C(N)=O [T7, HAIYPRH, reference compound]",clearance from the brain at 6 h,"[2]; mouse, in vivo, ip",rapid clearance from the brain
